Reference: patent US20040105857A1, “Methods and compositions for enhancing angiogenesis” (priority 2003, published 2004)

Columns and labels:
[1] = system: chick chorioallantoic membrane (CAM); experiment: Angiogenesis assay in the chick chorioallantoic membrane (CAM) model, vessel branch point count; type: in vivo; details: for induction of angiogenic response (vessel branch points): within a defined concentration range
Method: FIG. 1 depicts induction of angiogenesis by soluble L1-fusion protein containing the fourth, fifth, and sixth Ig-like domains of L1 (Ig 4-6). a. GST fusion proteins were made covering the entire extra-cellular domain of L1 and consisted of immunoglobulin like domains 1 through 3 (Ig1 3), immunoglobulin like domains 4 through 6 (Ig4-6), and FN type III like domains 1-5 (FN1 5). b. The L1-fusion proteins (Ig 1-3, Ig 4-6 or FN1-5) were tested for their ability to induce an angiogenic response in the chick chorioallantoic membrane (CAM) model. Filter discs each received 0.5 mg of Ig4-6 fusion protein ([…]) or equimolar amounts of the Ig 1-3, or FN1-5 fusion proteins. Negative or positive control groups received filter discs saturated with media alone or with bFGF respectively. Angiogenesis was quantified by counting the number of vessel branch points within the area of membrane immediately beneath the disc. The number of vessel branch points counted in the control group receiving media alone has been subtracted. Treatment groups consisted of a minimum of six embryos and experiments were performed on three separate occasions. c. […] Results obtained using bFGF or media alone are shown for comparison. Note that fine and highly branched angiogenic vessels can be distinguished from large preexisting vessels. Dotted lines delineate the area of the filter disc placed on the membrane. Excised membrane beneath and adjacent to the filter discs were photographed using an Olympus SZH10 Research Stereo microscope at 15×.
FIG. 2 depicts induction of angiogenesis by a L1-RGD peptide and by a function blocking antibody to β1 integrins. a. The L1 peptide PSITWRGDGRDLQEL or the mutant L1 peptide PSITWRADGRDLQEL were tested for their ability to induce an angiogenic response in the chick CAM model. b. Function blocking antibodies to chick avβ3 (LM609) or to chick β1-intgrins (CSAT) were also tested. […] Angiogenesis was quantified by counting the number of vessel branch points within the area of membrane immediately beneath the disc. The number of vessel branch points counted in the control group receiving media alone has been subtracted. c. […]
FIG. 3 depicts induction of angiogenesis by L1 cleavage products. a. […] Untreated and digested L1 (trypsin free) was then analyzed by SDS polyacrylamide gel electrophoresis (5-15% gradient). b. Sites of trypsin cleavage were determined by amino terminal sequencing and are shown schematically. c. […] Angiogenesis was quantified by counting the number of vessel branch points within the area of membrane immediately beneath the disc.
Angiogenesis assay. Angiogenesis was assessed using the chick chorioallantoic membrane (CAM) model which has been extensively described^54. […]

integrin = experiment: Integrin-binding activity of mutant L1 peptide (data not shown)
[2] = system: HDMEC or ECV304 avb3(−) cell adhesion to fibronectin; experiment: Cell adhesion to fibronectin (data not shown); type: cell-based; set-up: effect on cell adhesion to fibronectin: dose or concentration left out as unconfirmed
Method: The extent to which the L1 polypeptide or L1-RGD peptide alters adhesivity between endothelial cells, or endothelial cells and the subendothelial matrix remains to be determined. However, at a high molarity (250 uM) the L1-RGD peptide abrogated 30-40% of HDMEC or ECV304 avb3(−) cell adhesion to fibronectin (data not shown). […] This would certainly be consistent with the fact that both αvβ3 and αvβ1 can promote cell adhesion or spreading on fibronectin^37-38.

[3] = biological target: T1, αvβ1 expressed by endothelial cells (Homo sapiens, UniProt P05556+P06756); details: reference 18; cited from earlier work
T1 construct: αvβ1 expressed by endothelial cells; endogenous in cells
T1 sequence (P06756 31-889 limits assumed): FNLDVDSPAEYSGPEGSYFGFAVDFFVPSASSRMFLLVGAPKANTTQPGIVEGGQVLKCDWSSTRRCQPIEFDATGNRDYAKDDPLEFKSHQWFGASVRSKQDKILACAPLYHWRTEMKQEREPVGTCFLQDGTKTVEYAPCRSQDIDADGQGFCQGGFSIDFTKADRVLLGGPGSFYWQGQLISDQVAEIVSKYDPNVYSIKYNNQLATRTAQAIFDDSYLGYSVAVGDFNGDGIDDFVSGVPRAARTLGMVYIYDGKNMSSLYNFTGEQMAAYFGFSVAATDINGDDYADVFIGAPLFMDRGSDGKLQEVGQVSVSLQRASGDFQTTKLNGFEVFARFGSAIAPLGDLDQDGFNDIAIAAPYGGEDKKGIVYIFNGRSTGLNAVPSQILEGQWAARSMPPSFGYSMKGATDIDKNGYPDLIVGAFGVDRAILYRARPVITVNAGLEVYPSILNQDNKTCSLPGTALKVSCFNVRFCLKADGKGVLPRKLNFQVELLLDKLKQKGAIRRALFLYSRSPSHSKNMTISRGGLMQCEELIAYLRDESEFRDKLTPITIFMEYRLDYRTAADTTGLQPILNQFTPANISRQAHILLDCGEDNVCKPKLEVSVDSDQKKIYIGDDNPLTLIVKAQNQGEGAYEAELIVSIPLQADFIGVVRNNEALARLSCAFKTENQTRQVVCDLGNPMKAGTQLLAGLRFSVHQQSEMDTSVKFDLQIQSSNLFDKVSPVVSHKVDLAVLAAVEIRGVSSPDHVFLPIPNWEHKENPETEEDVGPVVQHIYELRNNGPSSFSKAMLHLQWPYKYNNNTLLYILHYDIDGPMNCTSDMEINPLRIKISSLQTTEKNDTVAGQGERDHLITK
T1 sequence (P06756 891-1048 limits assumed): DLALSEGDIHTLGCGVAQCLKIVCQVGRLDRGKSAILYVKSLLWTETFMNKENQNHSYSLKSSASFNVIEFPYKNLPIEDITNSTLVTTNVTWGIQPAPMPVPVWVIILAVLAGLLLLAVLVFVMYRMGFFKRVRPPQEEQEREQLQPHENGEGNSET
T1 sequence (P05556 21-798): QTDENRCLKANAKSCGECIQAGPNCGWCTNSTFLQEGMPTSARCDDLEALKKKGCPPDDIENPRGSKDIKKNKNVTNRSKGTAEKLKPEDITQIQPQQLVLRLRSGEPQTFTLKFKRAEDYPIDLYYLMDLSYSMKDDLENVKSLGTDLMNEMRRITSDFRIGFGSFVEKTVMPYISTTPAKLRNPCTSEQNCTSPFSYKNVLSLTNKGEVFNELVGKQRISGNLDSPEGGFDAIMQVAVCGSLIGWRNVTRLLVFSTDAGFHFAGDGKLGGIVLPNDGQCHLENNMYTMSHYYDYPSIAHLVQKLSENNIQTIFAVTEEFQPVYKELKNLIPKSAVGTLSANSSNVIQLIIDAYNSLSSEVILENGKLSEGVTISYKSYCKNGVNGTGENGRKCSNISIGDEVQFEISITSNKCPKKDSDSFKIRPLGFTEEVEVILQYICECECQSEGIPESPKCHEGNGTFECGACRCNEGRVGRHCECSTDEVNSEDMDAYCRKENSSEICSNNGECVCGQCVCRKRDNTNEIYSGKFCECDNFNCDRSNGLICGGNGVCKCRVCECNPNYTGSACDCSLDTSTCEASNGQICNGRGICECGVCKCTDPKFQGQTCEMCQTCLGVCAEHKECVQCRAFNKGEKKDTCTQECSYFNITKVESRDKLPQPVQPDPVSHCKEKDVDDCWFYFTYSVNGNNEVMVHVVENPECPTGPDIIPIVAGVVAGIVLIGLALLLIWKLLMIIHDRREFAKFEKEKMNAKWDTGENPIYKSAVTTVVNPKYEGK

integrin-binding activity (integrin)	Sequence	angiogenic activity compared with an equivalent concentration of the wildtype peptide ([1]; L1 peptides, 0.01-5 mg/disc)	induction of angiogenic response (vessel branch points) ([1]; L1 peptides, 0.01-5 mg/disc)	cell adhesion to fibronectin abrogated ([2]; 250 uM peptide, HDMEC or ECV304 avb3(−) cells)	effect on cell adhesion to fibronectin ([2]; lower proangiogenic concentrations)	angiogenic response at high concentration ([1]; high concentration of peptide or antibody)	recognition by αvβ1 [3]
retained some integrin-binding activity	PSITWRADGRDLQEL [15-mer L1 peptide containing the mutation RGD to RAD; control peptide]	significantly less proangiogenic	some angiogenic activity				
	PSITWRGDGRDLQEL [L1-RGD peptide]		proangiogenic	30-40%	did not overtly prevent adhesion	not effective	recognized by αvβ1
